# Experimental data from patent publication US20250163104A1, “MACROCYCLIC IMMUNOMODULATORS” (priority 2021, published 2025).
# *1 amine or outer side, *2 acyl side, *3 side chain or, on linkers, in order; H or OH if unused. Where a SMILES comes first, the peptide text is derived from it. Bridges are numbered along the chain shown (N, C = ends). [ ]: non-standard residue; d: D form. The star is where a group is joined. Phe(4-COOH) = N[C@@H](Cc1ccc(C(=O)O)cc1)C(=O)O; X5 = O=C([C@H](Cc1ccc2ncccc2c1)N[*:1])[*:2]; Bip = N[C@@H](Cc1ccc(-c2ccccc2)cc1)C(=O)O; Phe(3-Me) = Cc1cccc(C[C@H](N)C(=O)O)c1; Val(3-OH) = CC(C)(O)[C@H](N)C(=O)O; 4Pal = N[C@@H](Cc1ccncc1)C(=O)O; Cha = N[C@@H](CC1CCCCC1)C(=O)O; Cit = NC(=O)NCCC[C@H](N)C(=O)O; dCha = N[C@H](CC1CCCCC1)C(=O)O; Tle = CC(C)(C)[C@H](N)C(=O)O; Carboxymethyl = O=C(O)C*; Orn = NCCC[C@H](N)C(=O)O; Pra = C#CC[C@H](N)C(=O)O; Dab = NCC[C@H](N)C(=O)O; Dap = NC[C@H](N)C(=O)O
# Target: T1, human PD-1 / PD-L1-Ig binding on Jurkat cell line over-expressing human PD-1 (Jurkat-PD-1) (Homo sapiens, UniProt Q15116)
# T1 construct: expressed in transfected cells; host or cells: Jurkat
# T1 sequence (Q15116 25-288): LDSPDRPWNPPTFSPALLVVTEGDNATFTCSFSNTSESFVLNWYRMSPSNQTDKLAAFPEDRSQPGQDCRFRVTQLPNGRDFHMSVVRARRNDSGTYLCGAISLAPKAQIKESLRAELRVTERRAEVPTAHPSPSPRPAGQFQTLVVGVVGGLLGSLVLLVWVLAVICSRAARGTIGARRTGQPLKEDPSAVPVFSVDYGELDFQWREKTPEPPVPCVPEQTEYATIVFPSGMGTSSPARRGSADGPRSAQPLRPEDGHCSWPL
# Assay: Jurkat-PD-1 Cell Binding High-Content Screening Assay (CBA)
# Format: cell-based
# Conditions: Jurkat-PD-1 cells, PE-labeled PD-L1-Ig 20 nM final; read-out: Jurkat HPD1_PDL1 IC50
# Outline: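 Binding of fluorescent PD-L1-Ig (phycoerythrin linked via the Ig tag, 20 nM final) to PD-1-overexpressing Jurkat cells was imaged after a 2 h, 37° C compound pretreatment and 1 hour ligand incubation.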
row,IC50 [nM],SMILES
1,32.4,CCC(C)[C@@H]1NC(=O)[C@H](Cc2ccc(-c3ccccc3)cc2)NC(=O)[C@H](C(C)C)NC(=O)[C@H](Cc2cc(C)ccc2C)NC(=O)[C@H](CC(=O)O)NC(=O)[C@H](Cc2ccc(OCC(=O)O)cc2)NC(=O)[C@H](CN)NC(=O)CSC[C@@H](C(=O)N[C@@H](C)C(N)=O)NC(=O)[C@H]([C@@H](C)O)NC(=O)[C@H](C(C)C)NC(=O)[C@H](CC2CCCCC2)NC(=O)[C@H](CCN)NC(=O)[C@@H](CC(C)C)NC(=O)[C@H](CCCN)NC1=O (some centres unmarked) [Compound 2241]
2,128,CC(C)C[C@H]1NC(=O)[C@H](CCCN)NC(=O)[C@H](CCC(=O)O)NC(=O)[C@H](Cc2ccc(-c3ccccc3)cc2)NC(=O)[C@H](C(C)C)NC(=O)[C@H](Cc2c[nH]c3ccccc23)NC(=O)[C@H](CC(=O)O)NC(=O)[C@H](Cc2ccc3ncccc3c2)NC(=O)[C@H](CN)NC(=O)CSC[C@@H](C(=O)N[C@@H](C)C(N)=O)NC(=O)[C@H]([C@@H](C)O)NC(=O)[C@H](C(C)C)NC(=O)[C@H](CC2CCCCC2)NC(=O)[C@H](CCN)NC1=O [Compound 2177] ({CH2CO}-[Dap][X5]DWV[Bip]E[Orn][dL][Dab][Cha]VTCA-NH2; thioether N-14)
3,6.4,CC(C)C[C@H]1NC(=O)[C@H](CCCN)NC(=O)[C@H](C(C)C)NC(=O)[C@H](Cc2ccc(-c3ccccc3)cc2)NC(=O)[C@H](C(C)C)NC(=O)[C@H](Cc2c[nH]c3ccccc23)NC(=O)[C@H](CC(=O)O)NC(=O)[C@H](Cc2ccc(O)cc2)NC(=O)[C@H](CN)NC(=O)CSC[C@@H](C(=O)N[C@@H](C)C(N)=O)NC(=O)[C@H]([C@@H](C)O)NC(=O)[C@H](C(C)C)NC(=O)[C@H](CC2CCCCC2)NC(=O)[C@H](CCN)NC1=O [Compound 1172]
4,50.8,CC(=O)NCCCC[C@@H]1NC(=O)[C@H](CCCNC(N)=O)NC(=O)[C@H](Cc2ccc(-c3ccccc3)cc2)NC(=O)[C@H](CC(C)C)NC(=O)[C@H](Cc2c[nH]c3ccccc23)NC(=O)[C@H](CC(N)=O)NC(=O)[C@H](Cc2ccc(OCC(=O)O)cc2)NC(=O)[C@H](Cc2ccccc2)NC(=O)CSC[C@@H](C(=O)N[C@@H](C)C(N)=O)NC(=O)[C@H](CO)NC(=O)[C@H](C(C)C)NC(=O)[C@H](CC2CCCCC2)NC(=O)[C@H](CC(N)=O)NC(=O)[C@@H](CC(C)C)NC1=O [Compound 2502] ({CH2CO}-FY(Carboxymethyl)NWL[Bip][Cit]K(Ac)[dL]N[Cha]VSCA-NH2; thioether N-14)
5,86.8,CC(C)[C@@H]1NC(=O)[C@H](Cc2c[nH]c3ccccc23)NC(=O)[C@H](CC(=O)O)NC(=O)[C@H](Cc2ccncc2)NC(=O)[C@H](CN)NC(=O)CSC[C@@H](C(=O)N[C@@H](C)C(N)=O)NC(=O)[C@H]([C@@H](C)O)NC(=O)[C@H](C(C)C)NC(=O)[C@H](CC2CCCCC2)NC(=O)[C@H](CCN)NC(=O)[C@@H](CC2CCCCC2)NC(=O)[C@H](CCCN)NC(=O)[C@H](CCC(=O)O)NC(=O)[C@H](Cc2ccc(-c3ccccc3)cc2)NC1=O [Compound 1440] ({CH2CO}-[Dap][4Pal]DWV[Bip]E[Orn][dCha][Dab][Cha]VTCA-NH2; thioether N-14)
6,4.5,CC(C)C[C@H]1NC(=O)[C@H](CCCN)NC(=O)[C@H](CCCNC(N)=O)NC(=O)[C@H](Cc2ccc(-c3ccccc3)cc2)NC(=O)[C@H](C(C)C)NC(=O)[C@H](Cc2c[nH]c3ccccc23)NC(=O)[C@H](CC(=O)O)NC(=O)[C@H](Cc2ccncc2)NC(=O)[C@H](CN)NC(=O)CSC[C@@H](C(=O)N[C@@H](C)C(N)=O)NC(=O)[C@H]([C@@H](C)O)NC(=O)[C@H](C(C)C)NC(=O)[C@H](CC2CCCCC2)NC(=O)[C@H](CCN)NC1=O [Compound 2096]
7,5.5,Cc1cccc(C[C@@H]2NC(=O)[C@H](CC(=O)O)NC(=O)[C@H](Cc3ccc(OCC(=O)O)cc3)NC(=O)[C@H](CN)NC(=O)CSC[C@@H](C(=O)N[C@@H](C)C(N)=O)NC(=O)[C@H](CCCNC(=N)N)NC(=O)[C@H](C(C)C)NC(=O)[C@H](CC3CCCCC3)NC(=O)[C@H](CCN)NC(=O)[C@@H](CC(C)C)NC(=O)[C@H](CCCN)NC(=O)[C@H](C(C)C)NC(=O)[C@H](Cc3ccc(-c4ccccc4)cc3)NC(=O)[C@H](C(C)C)NC2=O)c1 [Compound 1756] ({CH2CO}-[Dap]Y(Carboxymethyl)D[Phe(3-Me)]V[Bip]V[Orn][dL][Dab][Cha]VRCA-NH2; thioether N-14)
8,18.2,Cc1cccc(C[C@@H]2NC(=O)[C@H](CC(=O)O)NC(=O)[C@H](Cc3ccc(C(=O)O)cc3)NC(=O)[C@H](Cc3ccncc3)NC(=O)CSC[C@@H](C(N)=O)NC(=O)[C@H]([C@@H](C)O)NC(=O)[C@H](C(C)(C)C)NC(=O)[C@H](CC3CCCCC3)NC(=O)[C@H](CCN)NC(=O)[C@@H](CC(C)C)NC(=O)[C@H](CCCN)NC(=O)[C@H](CCCNC(N)=O)NC(=O)[C@H](Cc3ccc(-c4ccccc4)cc3)NC(=O)[C@H](C(C)C)NC2=O)c1 [Compound 2266] ({CH2CO}-[4Pal][Phe(4-COOH)]D[Phe(3-Me)]V[Bip][Cit][Orn][dL][Dab][Cha][Tle]TC-NH2; thioether N-14)
9,316,C#CC[C@H](NC(=O)[C@@H]1CSCC(=O)N[C@@H](CCN)C(=O)N[C@@H](Cc2ccc(C(=O)O)cc2)C(=O)N[C@@H](CC(=O)O)C(=O)N[C@@H](Cc2cccc(C)c2)C(=O)N[C@@H](Cc2ccc(C(=O)O)cc2)C(=O)N[C@@H](Cc2ccc(-c3ccccc3)cc2)C(=O)N[C@@H](Cc2ccc(C(=O)O)cc2)C(=O)N[C@@H](CCCN)C(=O)N[C@H](CC(C)C)C(=O)N[C@@H](CCN)C(=O)N[C@@H](CC2CCCCC2)C(=O)N[C@@H](C(C)(C)O)C(=O)N[C@@H](CO)C(=O)N1)C(=O)O [Compound 2704] ({CH2CO}-[Dab][Phe(4-COOH)]D[Phe(3-Me)][Phe(4-COOH)][Bip][Phe(4-COOH)][Orn][dL][Dab][Cha][Val(3-OH)]SC[Pra]-OH; thioether N-14)
10,5.8,CC(C)C[C@H]1NC(=O)[C@H](CCCN)NC(=O)[C@H](CCC(=O)O)NC(=O)[C@H](Cc2ccc(-c3ccccc3)cc2)NC(=O)[C@H](C(C)C)NC(=O)[C@H](Cc2cccc(Cl)c2)NC(=O)[C@H](CC(=O)O)NC(=O)[C@H](Cc2ccc(OCC(=O)O)cc2)NC(=O)[C@H](CN)NC(=O)CSC[C@@H](C(=O)N[C@@H](C)C(N)=O)NC(=O)[C@H]([C@@H](C)O)NC(=O)[C@H](C(C)C)NC(=O)[C@H](CC2CCCCC2)NC(=O)[C@H](CCN)NC1=O [Compound 1495]
11,48.5,CC(=O)NCCC[C@@H]1NC(=O)[C@H](Cc2ccc(OCC(=O)O)cc2)NC(=O)[C@H](Cc2ccc(-c3ccccc3)cc2)NC(=O)[C@H](Cc2ccc(O)cc2)NC(=O)[C@H](Cc2cccc(C)c2)NC(=O)[C@H](CC(=O)O)NC(=O)[C@H](Cc2ccc(OCC(=O)O)cc2)NC(=O)[C@H](CCCNC(=N)N)NC(=O)CSC[C@@H](C(N)=O)NC(=O)[C@H]([C@@H](C)O)NC(=O)[C@H](C(C)C)NC(=O)[C@H](CC2CCCCC2)NC(=O)[C@H](CCN)NC(=O)[C@@H](CC(C)C)NC1=O [Compound 2051] ({CH2CO}-RY(Carboxymethyl)D[Phe(3-Me)]Y[Bip]Y(Carboxymethyl)[Orn](Ac)[dL][Dab][Cha]VTC-NH2; thioether N-14)
